Experimental findings from a melting point compilation (Tetko et al.; mined from patent text by program, amines drawn as free bases though some values may be those of a salt) are described below.

Bounds are passed on as bounds.

For `O=C1NCc2cc(C3CC3)sc21`, the melting point (as a rule, the temperature, or range, at which the solid turns liquid) is 109 to 110 °C.

Consider `Nc1c(Cl)c(C(=O)O)nc(Cl)c1C(F)(F)F`, for which the melting point amounted to 173 °C.

`CCc1noc(C)c1-c1[nH]c2ccccc2c1C(C)=O` registered a melting point of 170 to 173 °C.

The compound `Oc1ccc(Oc2cccc(-c3c(Cc4ccccc4)cnc4c(C(F)(F)F)cccc34)c2)cc1` yielded a melting point of 55 to 60 °C.

The compound `O=C(NN1CCCCC1)c1nn(-c2ccc(Cl)cc2Cl)c2c1SCc1cc(Cl)ccc1-2` had a melting point of 148 °C.

With `COCCNC(=S)n1nc(Oc2ncc(C(F)(F)F)cc2Cl)cc1C`, the melting point fell in the range of 108 to 109 °C.

Compound `CC(C)(C)c1cc(CCc2cc(F)cc(F)c2NC(=O)NC23CC4CC(CC(C4)C2)C3)cc(C(C)(C)C)c1O` showed a melting point of 218 to 220 °C.

In turn, `CCn1ncc2c(NCc3ccc(OC)cc3)c3ccccc3nc21` showed a melting point of 179 to 180 °C.

Consider `O=C(O)c1ccc2c(=O)n(Cc3ccc(Cl)cc3Cl)cnc2c1`, for which the melting point was in the range of 244 to 246 °C.

The compound `Cc1cc2nc3ccccc3sc-2c(Br)c1=O` registered a melting point of 190 °C.

With `On1nnc2cccnc21`, the melting point lay within 216 to 217 °C.

`N#Cc1ccc(OCc2cnsc2)cc1OC(C(=O)O)c1ccccc1Cl` (racemic) returned a melting point of 194 to 197 °C.

Regarding `CCCCOC(=O)c1cc(=O)c2c(cc(OC)c3ncccc32)[nH]1`, the melting point was 212 to 213 °C.

In turn, `COc1ccccc1N1CCN(CCn2c(=O)[nH]c3sc(Cl)cc3c2=O)CC1` registered a melting point of 228 to 230 °C.

Regarding `CCS(=O)(=O)c1cc2c(cc1OC)CCn1c3c(c(Br)c1-2)CCCCN(C(C)(C)C)C3=O`, the melting point was found to be 227 °C.

Turning to `CCS(=O)(=O)N(c1cc(-c2ncnc(C(F)(F)F)c2Cl)c(F)cc1C#N)S(=O)(=O)CC`, the melting point lay within 191 to 194 °C.

`CSc1ccc(C2=NNC(C(=O)OC(C)(C)C)S2)cc1` (stereo unspecified): the melting point is 71 to 72 °C.

`CC(C)(C)OC(=O)C(C1NC(C(=O)OCc2ccccc2)C2(CCOCC2)S1)N1C(=O)c2ccccc2C1=O` (stereo unspecified) came in with a melting point of 168 to 169 °C.

As for `O=C1Cc2c(ccc3ccc(C(O)C(F)(F)F)cc23)O1` (stereo unspecified), the melting point lay within 208 to 209 °C.

`COc1ccc([C@H](O)[C@@H](Cc2ccc(C(F)(F)F)cc2)NC(=O)CCc2ccccc2)cc1` (racemic): the melting point was in the range of 116 to 117 °C.

On to `Cc1ccc2c(n1)CC(c1ccccc1C)CC2=O` (stereo unspecified), for which the melting point is 76 to 77 °C.

The compound `CC(C)c1c(Cl)nc(NC=O)nc1Cl` registered a melting point of 95 to 96 °C.

As for `Cc1cccc2c1nc(COc1ccc(Cl)cc1)n2CCC(C)C(=O)NNCc1ccccc1` (racemic), the melting point was in the range of 145 to 146 °C.

In turn, `O=S1(=O)c2cccc3cccc(c23)N1CCCN1CC=C(c2ccc(Cl)cc2)CC1` came in with a melting point of 111 °C.

The compound `CCOC(=O)C(=O)Nc1cc(=O)c2ccccc2o1` gave a melting point of 167 to 169 °C.

As to `NCCC(=O)N(c1ccccc1)c1ccccc1`, the melting point worked out at 50 °C.

On to `O=C1CCN(c2ccc(C(=O)O)cc2)CCN1`, for which the melting point lay within 285 to 286 °C.

Compound `Cn1cc(C2=C(c3cn(CCCCl)c4ccccc34)C(=O)NC2=O)c2ccccc21` displayed a melting point of 254 to 256 °C.

On to `CCOC(=O)C(=CNc1ccnn1Cc1ccco1)C(=O)c1ccccc1`, for which the melting point fell in the range of 75 to 77 °C.

`Cc1ccc(S(=O)(=O)N(F)CC(C)(C)C)cc1`: the melting point lay in the range of 58 to 62.5 °C.

As for `Cc1ccc(-c2ccc3c(c2)C=C(C(=O)O)C(C)O3)cc1` (stereo unspecified), the melting point is 190 to 192 °C.

In turn, `N#CN=c1ccccn1C1=CC(CF)(CF)Oc2ccc(C(F)(F)C(F)(F)F)cc21` had a melting point of 196 to 198 °C.

The compound `C[C@H]1CN(c2ccccn2)[C@@H](C)CN1C1=c2ccccc2=NCN1c1ccccc1` (relative stereo) had a melting point of 68 to 70 °C.

Compound `CCCCCCCCCCC1(CCCCCCCCCC)c2cc(Br)ccc2-c2ccc(I)cc21` gave a melting point of 43 to 45 °C.

As to `CC1=C(S(C)(=O)=O)C(c2ccc(Cl)c([N+](=O)[O-])c2)C2=C(CCC2=O)N1` (stereo unspecified), the melting point came out at 232 °C.

With `O=C(O)c1ccc(C(c2ccccc2)(c2ccc(C(=O)O)c(C(=O)O)c2)C(F)(F)F)cc1C(=O)O`, the melting point fell in the range of 210 to 213 °C.

Compound `Clc1ccc2ccc(/C=C/c3ccc(CN4CCc5cccc(CCc6nnn[nH]6)c54)cc3)nc2c1` gave a melting point of 83 to 87 °C.

`CCC(=NO)C(C)(C)NCC(Cn1ccnc1[N+](=O)[O-])ONC(C)(C)C(CC)=NO` (stereo unspecified) yielded a melting point of 143 to 144 °C.

`CNC(=O)CCCCc1csc(NC(N)=NCC(F)(F)F)n1` showed a melting point of 122 to 126 °C.

In the case of `O=C1NC(=O)c2c(Br)c(Sc3ccc(Cl)cc3)c(Sc3ccc(Cl)cc3)c(Br)c21`, the melting point lay in the range of 310 to 315 °C.

`CCCCOC(=O)CN(C(=O)C(F)(F)F)C(NC(C)C)P(=O)(O)OSCC` (stereo unspecified) displayed a melting point of 64 to 65 °C.

`CCCCN1CCC(CNC(=O)c2cc(Cl)cc3c2OCCO3)C(O)C1` (stereo unspecified) displayed a melting point of 112 °C.

`CCOC(=O)C(Sc1nc2cc(Cl)ccc2s1)c1ccccc1` (stereo unspecified) had a melting point of 62 to 64 °C.

Compound `COc1ccc2cc(-c3ncno3)ccc2n1` displayed a melting point of 150 to 152 °C.

The compound `O=c1ccc(-c2c(-c3ccccc3)nn3ccccc23)nn1C1CCCCC1=Cc1nnn[nH]1` (stereo unspecified) registered a melting point of 129 to 131 °C.

`CCc1cc2c(c3c1[nH]c1ccc(O)cc13)C(=O)N(CCN(CC)CC)C2=O` displayed a melting point of 188 to 189 °C.

`c1ccc(-c2ccc(-c3cnc(-c4ccccc4)[nH]3)cn2)cc1` came in with a melting point of 206 °C.

As for `CCCS(=O)(=O)c1cccc(-c2nc(=O)c3ccccc3s2)n1`, the melting point was 174 °C.

As for `CCOC(=O)Cc1csc(NC(=O)C(CC2CCCC2)c2ccc(NC(=O)c3cccnc3)cc2)n1` (stereo unspecified), the melting point was 195 to 200 °C.

On to `CSc1ccc2ccc3c(SC)cc(SC)c4ccc1c2c34`, for which the melting point lay within 235 to 240 °C.

`Cn1ncc(C(N)=O)c1-c1ccc([N+](=O)[O-])o1` returned a melting point of 174 to 176 °C.

`COc1cccc(CC(=O)O)c1OCCCc1cn(-c2cc(C(F)(F)F)ccn2)nc1C(C)C` came in with a melting point of 127 to 128 °C.

In turn, `CC(C)n1c(-c2ccc(F)cc2)c(/C=C/C(=O)O)c2ccccc2c1=O` displayed a melting point of 233 to 234 °C.

Turning to `COc1cc(N(C)C)c(Cl)cc1C(=O)NCC1CN(Cc2ccc(C#N)cc2)CCO1` (stereo unspecified), the melting point fell in the range of 161 to 163 °C.

Consider `CCOP(=O)(CNC(=O)C[C@H]1O[C@H](c2cccc(OC)c2OC)c2cc(Cl)ccc2N(CC(C)(C)CO)C1=O)OCC`, for which the melting point fell in the range of 138 to 140 °C.

The compound `O=C1NC(=O)C2(N1)c1ccccc1-c1ncccc12` (stereo unspecified) registered a melting point of 311 to 312 °C.

For `O=C1CC2CCc3cc(-n4ccc(=O)cc4)ccc3C2=NN1` (stereo unspecified), the melting point is over 300 °C.

In the case of `COc1cc(OCc2cccnc2)ccc1/C=C/c1cc(/C=C/c2cccc3cc[nH]c23)n[nH]1`, the melting point lay in the range of 122 to 129 °C.

`COc1ccnc(-n2cnc3ccccc32)n1` registered a melting point of 114 to 116 °C.

`CCOCc1nc2cnc3cccnc3c2n1CC1(O)CCOCC1` yielded a melting point of 168 to 169 °C.

`C[C@@H](n1cnc2cc(N)ccc2c1=O)[C@](O)(Cn1cncn1)c1ccc(F)cc1F` displayed a melting point of 103 to 109 °C.

Turning to `CCOC(=O)c1ccc(CNC(=O)c2csc3nc(C(=O)OCC)[nH]c(=O)c23)cc1`, the melting point was in the range of 227 to 228 °C.

As for `Nc1nc(N)c(-c2ccc(Cl)cc2Cl)c(Cl)n1`, the melting point came out at 219 °C.

The compound `CCCc1c(OCCCSc2ccc(C(=O)CCC(=O)O)c(O)c2)ccc(C(C)=O)c1O` yielded a melting point of 140 °C.

Compound `CC(C)(C)OC(=O)N1CCC(C(=O)O)(C2CCCCC2)CC1` yielded a melting point of 156 °C.

In the case of `CC(C)(C)OC(=O)[C@@H]1CSC(C2CCCCC2)N1C(=O)CNC(=O)Nc1cccc(CC(=O)O)c1` (stereo partly specified), the melting point stood at 115 °C.

Consider `Cc1ccccc1-c1cc2cnc(N)nc2n(C)c1=O`, for which the melting point worked out at 239 °C.

For the compound `O=C(O)c1ccc2c(c1F)OC(c1ccccc1)(c1ccccc1)O2`, the melting point is 189 to 191 °C.

For `COC(=O)CCCc1cc2cc(Cl)ccc2n1S(=O)(=O)c1ccc(N)c(N)c1`, the melting point is 158 to 160 °C.

Compound `CCOC(=O)c1c(C(F)(F)F)nc(C(F)F)c(C(=O)OC)c1C1CC1` displayed a melting point of 49 to 52 °C.

The compound `Cc1ccc(S(=O)(=O)NN=C2CCCCCCCC2)cc1` gave a melting point of 135 to 138 °C.

Regarding `CC(C)Cc1ccc(-c2cc(C(=O)O)cc(-c3ccc(Cl)cc3)n2)cc1`, the melting point is 220 to 221 °C.

Consider `CC(C)C(=O)OC[C@@]1(N=[N+]=[N-])O[C@@H](n2ccc(N)nc2=O)[C@@H](OC(=O)C(C)C)[C@@H]1OC(=O)C(C)C`, for which the melting point is 167 to 169 °C.

The compound `N=C(N)c1ccc2ncn(CC(=O)N3CCC(Cc4ccccc4)CC3)c2c1` had a melting point of 68 to 70 °C.

The compound `O=C(O)CCc1cc2cc(-c3ccc(C(F)(F)F)cc3)ccc2n1S(=O)(=O)c1ccccc1` came in with a melting point of 162 °C.

In the case of `O=C(NO)c1ccc(CNC(=O)c2[nH]c(-c3ccccc3)cc2-c2ccc([N+](=O)[O-])cc2)cc1`, the melting point was 179 to 180 °C.

In the case of `CCc1nc2cc(Cl)c(Cl)cc2n1C1CC(CO)C(O)C1O` (stereo unspecified), the melting point fell in the range of 191 to 193 °C.

The compound `CCOC(=O)c1cccn1Cc1ccc(Cl)cc1[N+](=O)[O-]` returned a melting point of 104 to 106 °C.

The compound `Clc1ccc(Cn2cc(C=Cc3cccnc3)c3cc(OCc4ccc5ccccc5n4)ccc32)cc1` returned a melting point of 169 to 171 °C.

Take `O=C(O)c1cccc(-c2cccc(Oc3ccc(Cl)cc3Cl)n2)c1`: the melting point fell in the range of 244 to 245 °C.

The compound `CC(C)(C)c1cc(=O)cc(C(C)(C)C)s1` gave a melting point of 97 to 98 °C.

The compound `O=C1CCSC(=S)N1c1c(F)c(F)c(F)c(F)c1F` had a melting point of 164 °C.

As for `CCOC(=O)C1CN(C2CC2)c2nc3cc(F)c(F)cc3cc2C1=O` (stereo unspecified), the melting point came out at 172 °C.

Consider `CCOc1ncc(I)cc1C(N)=O`, for which the melting point lay in the range of 176 to 179 °C.

Turning to `O=C1CCC(c2ccc(-c3ccc(F)cc3)o2)O1` (stereo unspecified), the melting point was in the range of 57 to 59 °C.

In turn, `NC(=O)c1[nH]c2ccc(C(O)(C(F)(F)F)C(F)(F)F)cc2c1-c1ccccc1` displayed a melting point of 220 to 224 °C.
